The text below walks through data of patent US9980937B2, “Therapeutic agent for Alzheimer's disease” (NAGASAKI UNIVERSITY, priority 2014, dated 2018).

Bounds are passed on as bounds.

T1 sequence (P56817 46-501): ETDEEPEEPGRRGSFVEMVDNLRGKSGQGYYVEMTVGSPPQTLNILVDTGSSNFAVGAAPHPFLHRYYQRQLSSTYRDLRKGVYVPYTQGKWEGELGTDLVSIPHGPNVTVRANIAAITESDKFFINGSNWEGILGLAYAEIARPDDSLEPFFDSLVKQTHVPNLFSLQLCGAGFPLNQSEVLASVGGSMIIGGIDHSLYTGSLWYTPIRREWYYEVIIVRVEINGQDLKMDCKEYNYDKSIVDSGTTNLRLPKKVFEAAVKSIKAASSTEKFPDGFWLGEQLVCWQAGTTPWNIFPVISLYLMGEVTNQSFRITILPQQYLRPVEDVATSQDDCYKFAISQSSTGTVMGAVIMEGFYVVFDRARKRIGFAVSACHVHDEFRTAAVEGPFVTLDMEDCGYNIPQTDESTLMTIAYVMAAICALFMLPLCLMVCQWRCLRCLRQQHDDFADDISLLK

One data set deals with neprilysin. The experiment in a line: neprilysin-dependent neutral endopeptidase activity of APP-H4 cell extract (suc-AAF-AMC coupled enzyme assay). It is filed as cell-based, human. Conditions: APP-H4 cells, 48 hr, 1 or 10 μM; activity without polyphenol derivative = 1 (FIG. 1). As for the experimental part: (§1) APP-H4 cells were seeded to a 6-well plate at a density of 12×10^4 cells/1.5 mL, and cultured in Dulbecco's modified Eagle's medium (DMEM; Nacalai Tesque, Inc.) added with 10% fetal bovine serum (FBS; Equitech-Bio, Inc. [Kerrville, Tex., USA]), 100 U/mL penicillin+100 μg/mL streptomycin (Nacalai Tesque, Inc.). After culture for 24 hr, the culture supernatant was removed, and the medium was exchanged with a medium with reduced use amount of serum, Opti-MEM (registered trade mark) I Reduced Serum Medium (Life Technologies Corporation, Carlsbad, Calif., USA) (1 mL). A polyphenol derivative (1 μL) to be the test target was added, and the mixture was further cultured for 48 hr. After culture, the culture supernatant was recovered in a tube (total amount 1.5 mL), centrifuged at 4,000×g/4° C./10 min to remove dead cells, and the supernatant (800 μL) was placed in a new tube. The culture supernatant was preserved at −80° C. before sample preparation. The cells were washed twice with ice-cooled phosphate-buffered saline (PBS). Thereafter, the cells were scraped from the plate using a Cell Scraper. The cells were recovered in a 1.5 mL tube and centrifuged at 4,000×g/4° C./10 min. The supernatant was removed and the cells were preserved at −80° C. before sample preparation. The frozen cells were lysed in 40 μL of solubilization buffer containing 1% Triton X-100, protease inhibitor cocktail Complete™ EDTA-free (Roche) and 50 mM Tris-HCl on ice. The cell lysate was incubated on ice for 60 min, centrifuged at 4° C., 21,900×g for 30 min, and the supernatant was recovered and used as a solubilization cell extract.
The total protein concentration of the cell extract was determined by a BCA protein assay kit (Takara) by using BSA as the standard solution. The final concentration of the test compound used was 1 μM or 10 μM, and quantification was performed using each solvent as a control.
The neprilysin-dependent neutral endopeptidase activity of the cell extract was measured fluorescence quantitatively by an indirect coupled enzyme assay method. […] Total 50 μL of the reaction mixture was prepared such that the final concentration was substrate 0.1 mM suc-AAF-AMC, protein in the cell extract 1-6 μg, 100 mM MES buffer (pH 6.5). With the time of addition of the substrate as the start of the reaction, the mixture was reacted at 37° C. for 1 hr, and Phe-AMC was cut out from the substrate by neutral endopeptidase. […] The mixture was reacted at 37° C. for 30 min, and Phe (phenylalanine) residue was cut out from Phe-AMC by aminopeptidase.
Turning to `O=C(O[C@@H]1Cc2c(O)cc(O)cc2O[C@@H]1c1cc(O)c(O)c(O)c1)c1cc(O)c(O)c(O)c1` [EGCg, (−)-epigallocatechin-3-O-gallate, reference compound], the “neprilysin activity potentiating action” value was “about 1.5 times that of control”.

Consider `O=C(O)CCCCCCCCCCCCCCOC1CCc2c(c3c(c4c2O[C@H](c2cc(O)c(O)c(O)c2)[C@H](OC(=O)c2cc(O)c(O)c(O)c2)C4)OC(OCCCCCCCCCCCCCCC(=O)O)CC3)O1` (some centres unmarked) [NUP-E15-2], for which the “neprilysin activity potentiating action” value is given as “about 1.5 times that of control”.

For `O=c1c(O)c(-c2ccc(O)cc2)oc2cc(O)cc(O)c12` [Kaempferol], the “neprilysin activity potentiating action” value is reported as “about 1.5 times that of control”.

On to `O=c1cc(-c2ccccc2)oc2cc(O)c(O)c(O)c12` [Baicalein], for which the “neprilysin activity potentiating action” value was “about 1.7 times that of control”.

With `CC1CCC2C(C1)c1c(c3c(c4c1OC(C)(C)C1CCC(C)CC41)O[C@H](c1cc(O)c(O)c(O)c1)[C@H](OC(=O)c1cc(O)c(O)c(O)c1)C3)OC2(C)C` (some centres unmarked) [NUP-11], the “neprilysin activity potentiating action” value was “about 3.5 times that of control”.

For a further data set, the system named is neprilysin. The experiment in a line: neprilysin expression amount at protein level (western blot, APP-H4 cells). Conditions: 48 hr, standardized to β-actin (FIG. 2). It is filed as cell-based, human. As for the experimental part: as §1
The aforementioned cell extract was mixed with 6×SDS-polyacrylamide gel electrophoresis (SDS-PAGE) sample buffer (Nacalai Tesque, Inc.) at a ratio of 5:1, boiled for 5 min, and used as a detection sample of neprilysin, α-secretase and β-secretase proteins.
The PVDF membrane after transfer was washed with a wash buffer and immersed in a blocking buffer to prevent non-specific binding of the primary antibody, and a blocking reaction was performed at room temperature for 1 hr. […] The PVDF membrane after the reaction was washed with the wash buffer and the secondary antibody (horseradish peroxidase conjugated anti-mouse or anti-rabbit IgG (1:10,000; GE Healthcare UK Ltd.)) corresponding to the primary antibody was reacted at room temperature for 1 hr and detection was carried out using the ECL Select Western Blotting Detection Kit (GE Healthcare UK Ltd.).
The signal intensity of the band was quantified using a densitometer LAS-4000 (GE Healthcare UK Ltd.) and image analysis software Science Laboratory 2003 Image Gauge Version 4.23 (Fujifilm Holdings Corporation, Tokyo, Japan).
Background: Immunoblotting shows a protein as a band on a membrane.
`CC1CCC2C(C1)c1c(c3c(c4c1OC(C)(C)C1CCC(C)CC41)O[C@H](c1cc(O)c(O)c(O)c1)[C@H](OC(=O)c1cc(O)c(O)c(O)c1)C3)OC2(C)C` (some centres unmarked) [NUP-11]: the “expression amount of neprilysin at the protein level” value is listed as “about 3.3 times that of control”.

The next data set deals with neprilysin mRNA (MME gene). The experiment in a line: neprilysin mRNA expression (quantitative real-time PCR, MME gene). Conditions: standardized to GAPDH mRNA (FIG. 3). In kind it is cell-based, human. As for the experimental part: (§2) In the same manner as in the above-mentioned 2, total RNA was prepared using a High Pure RNA Isolation kit (Roche 11828665001) from the cells to be the test target cells, which were treated with each polyphenol derivative and cultured, and subjected to a reverse transcription reaction using PrimeScript RT-PCR kit (TaKaRaRR014A) to give a sample (cDNA) for real-time PCR.
(§3) The prepared sample, Premix Ex taq (Perfect Real Time) (TaKaRaRR039A) and a probe, and a primer were mixed in a tube (TaKaRa SC910A), and real-time PCR reaction (initial denaturation: 95° C. 30 sec, PCR reaction: 95° C. 5 sec, 60° C. 20 sec, 40 times) was performed by Smart Cycler II System machine (TaKaRa).
(§4) The 5′-terminus of the probe was modified by a fluorescent substance FAM, and the 3′-terminus was modified by a quencher substance TAMRA, respectively.
For orientation: Quantitative PCR measures a nucleic acid by following its amplification.
Turning to `O=C(O)CCCCCCCCCCCCCCOC1CCc2c(c3c(c4c2O[C@H](c2cc(O)c(O)c(O)c2)[C@H](OC(=O)c2cc(O)c(O)c(O)c2)C4)OC(OCCCCCCCCCCCCCCC(=O)O)CC3)O1` (some centres unmarked) [NUP-E15-2], the “expression level of neprilysin at the mRNA level” value is “about 7.9 times that of control”.

In the case of `CC1CCC2C(C1)c1c(c3c(c4c1OC(C)(C)C1CCC(C)CC41)O[C@H](c1cc(O)c(O)c(O)c1)[C@H](OC(=O)c1cc(O)c(O)c(O)c1)C3)OC2(C)C` (some centres unmarked) [NUP-11], the “expression level of neprilysin at the mRNA level” value is recorded as “about 4 times that of control”.

A further data set addresses T1, β-secretase (Homo sapiens, UniProt P56817).
T1 construct: endogenous in cells; host or cells: APP-H4 cells (culture supernatant analysed)
The experiment in a line: β-secretase activity (APPsβ, western blot). It is filed as cell-based. Conditions: APP-H4 culture supernatant, APPsβ (FIG. 2). As for the experimental part: as §1, with “extract. […]” for “extract.”
(§5) The signal intensity of the band was quantified using a densitometer LAS-4000 (GE Healthcare UK Ltd.) and image analysis software Science Laboratory 2003 Image Gauge Version 4.23 (Fujifilm Holdings Corporation, Tokyo, Japan). […]
In the case of `CC1CCC2C(C1)c1c(c3c(c4c1OC(C)(C)C1CCC(C)CC41)O[C@H](c1cc(O)c(O)c(O)c1)[C@H](OC(=O)c1cc(O)c(O)c(O)c1)C3)OC2(C)C` (some centres unmarked) [NUP-11], the “β-secretase activity, remaining relative to control” value is “about 41 % that of control”.

Another data set concerns APP. The experiment in a line: extracellularly secreted APPsα/APPsβ ratio (western blot). It is filed as cell-based, human. Conditions: APP-H4 culture supernatant (FIG. 2). As for the experimental part:
as §1
After thawing from −80° C., the aforementioned culture supernatant was mixed with 6×SDS-polyacrylamide gel electrophoresis (SDS-PAGE) sample buffer (Nacalai Tesque, Inc.) at a ratio of 5:1, boiled for 5 min, and used as a detection sample of APPsα which is a metabolite of APP by α-secretase and APPsβ which is a metabolite of APP by β-secretase in western blot analysis.
The PVDF membrane after transfer was washed with a wash buffer and immersed in a blocking buffer to prevent non-specific binding of the primary antibody, and a blocking reaction was performed at room temperature for 1 hr. Thereafter, it was reacted with a primary antibody (APPsα, anti-human APPsα mouse monoclonal antibody (2B3, Immuno-Biological Laboratories Co., Ltd., Gunma, Japan) (3 μg/mL); APPsβ, anti-APPsβ, rabbit polyclonal antibody, 1 μg/mL) to perform an antigen-antibody-reaction at 4° C. for not less than 16 hr. […]
as §5
In the case of `CC1CCC2C(C1)c1c(c3c(c4c1OC(C)(C)C1CCC(C)CC41)O[C@H](c1cc(O)c(O)c(O)c1)[C@H](OC(=O)c1cc(O)c(O)c(O)c1)C3)OC2(C)C` (some centres unmarked) [NUP-11], the “extracellularly secreted APPsα/APPsβ ratio” value is on record as “about 2.0 times that of control”.

Another data set has as its system ADAM17. The experiment in a line: α-secretase mRNA expression, ADAM17 (real-time PCR). In kind it is cell-based, human. Particulars: control = 1. Here is the method: as §2, §3, §4
Turning to `O=C(O)CCCCCCCCCCCCCCOC1CCc2c(c3c(c4c2O[C@H](c2cc(O)c(O)c(O)c2)[C@H](OC(=O)c2cc(O)c(O)c(O)c2)C4)OC(OCCCCCCCCCCCCCCC(=O)O)CC3)O1` (some centres unmarked) [NUP-E15-2], the “ADAM17 expression at the mRNA level” value was “about 3.7 times that of control”.

Regarding `CC1CCC2C(C1)c1c(c3c(c4c1OC(C)(C)C1CCC(C)CC41)O[C@H](c1cc(O)c(O)c(O)c1)[C@H](OC(=O)c1cc(O)c(O)c(O)c1)C3)OC2(C)C` (some centres unmarked) [NUP-11], the “ADAM17 expression at the mRNA level” value was “about 2.4 times that of control”.

Another data set deals with neprilysin, α-secretase, β-secretase. The experiment in a line: overall conclusion on modulation of neprilysin, α-secretase and β-secretase (Example 1). It is filed as cell-based, human. Particulars: conclusion from the results of Example 1. As for the experimental part: as §1
The neprilysin-dependent neutral endopeptidase activity of the cell extract was measured fluorescence quantitatively by an indirect coupled enzyme assay method. As a neutral endopeptidase substrate, succinyl-Ala-Ala-Phe-7-amino-4-methylcoumarin (suc-AAF-AMC) (1-1315; Bachem) was used. Total 50 μL of the reaction mixture was prepared such that the final concentration was substrate 0.1 mM suc-AAF-AMC, protein in the cell extract 1-6 μg, 100 mM MES buffer (pH 6.5). With the time of addition of the substrate as the start of the reaction, the mixture was reacted at 37° C. for 1 hr, and Phe-AMC was cut out from the substrate by neutral endopeptidase. Then, to the reaction mixture was added a solution (2.5 μL) containing 0.1 mg (0.4 unit equivalent)/mL leucine aminopeptidase (L-5006; Sigma-Aldrich), and 0.2 mM phosphoramidon (4082; Peptide Institute). The mixture was reacted at 37° C. for 30 min, and Phe (phenylalanine) residue was cut out from Phe-AMC by aminopeptidase. Using microplate spectrometer Infinite M-1000 (Tecan), the fluorescence intensity of free AMC was measured by measuring at an excitation wavelength 390 nm and a fluorescence wavelength 460 nm on a half-well size 96-well black plate (#3695; Corning). The neprilysin-dependent neutral endopeptidase activity was determined based on a decrease in the activity due to 10 μM thiorphan (T-6031; Sigma-Aldrich) as a neprilysin specific inhibitor.
After thawing from −80° C., the aforementioned culture supernatant was mixed with 6×SDS-polyacrylamide gel electrophoresis (SDS-PAGE) sample buffer (Nacalai Tesque, Inc.) at a ratio of 5:1, boiled for 5 min, and used as a detection sample of APPsα which is a metabolite of APP by α-secretase and APPsβ which is a metabolite of APP by β-secretase in western blot analysis. […]
As for `O=C(O)CCCCCCCCCCCCCCOC1CCc2c(c3c(c4c2O[C@H](c2cc(O)c(O)c(O)c2)[C@H](OC(=O)c2cc(O)c(O)c(O)c2)C4)OC(OCCCCCCCCCCCCCCC(=O)O)CC3)O1` (some centres unmarked) [NUP-E15-2], the “modulator class (neprilysin / α-secretase / β-secretase)” value is reported as “triple modulator”.

As for `CC1CCC2C(C1)c1c(c3c(c4c1OC(C)(C)C1CCC(C)CC41)O[C@H](c1cc(O)c(O)c(O)c1)[C@H](OC(=O)c1cc(O)c(O)c(O)c1)C3)OC2(C)C` (some centres unmarked) [NUP-11], the “modulator class (neprilysin / α-secretase / β-secretase)” value is listed as “double modulator”.

Test system in a further data set: not given
Experiment: not given
Conditions: coefficient of partition for octanol, in accordance with Fudouji et al. 2009; cited from earlier work.
Consider `CC12CC[C@@H](C(C)(C)O)[C@H](C1)c1c(cc(O)c3c1O[C@H](c1cc(O)c(O)c(O)c1)[C@H](OC(=O)c1cc(O)c(O)c(O)c1)C3)O2` [NUP-6], for which the “log P octanol” value is listed as 1.85.

In the case of `O=C(O[C@@H]1Cc2c(O)cc(O)cc2O[C@@H]1c1cc(O)c(O)c(O)c1)c1cc(O)c(O)c(O)c1` [EGCg, (−)-epigallocatechin-3-O-gallate, reference compound], the “log P octanol” value was 1.00.

As to `CC1CCC2C(C1)c1c(c3c(c4c1OC(C)(C)C1CCC(C)CC41)O[C@H](c1cc(O)c(O)c(O)c1)[C@H](OC(=O)c1cc(O)c(O)c(O)c1)C3)OC2(C)C` (some centres unmarked) [NUP-11], the “log P octanol” value is on record as >10.
